The values below come from ChEMBL document CHEMBL2021864, “Investigating the activity of quinine analogues versus chloroquine resistant Plasmodium falciparum” (Bioorg Med Chem, 2012).

In assay [1] the test system is Plasmodium falciparum. The experiment in a line: microbe, parasite or virus in culture. The settings on record: HB3, 72 h. It is filed as functional, organism-based.
Description: Antimalarial activity against chloroquine sensitive Plasmodium falciparum HB3 after 72 hrs by SYBP Green I dye staining
Assay [2] has as its system Plasmodium falciparum. Put plainly: microbe, parasite or virus in culture. It counts as functional, organism-based. The conditions noted are these: Dd2, 72 h.
Description: Antimalarial activity against chloroquine resistant Plasmodium falciparum Dd2 after 72 hrs by SYBP Green I dye staining
Assay [3] is described as follows: Inhibition of beta-hematin formation after 16 hrs at pH 5.2 by microplate reader. It counts as functional.
The nature of assay [4]: Inhibition of beta-hematin formation after 16 hrs at pH 5.6 by microplate reader. It counts as functional.
Assay [5] concerns Plasmodium falciparum. Put plainly: Ratio of compound IC50 to quinidine IC50 for chloroquine sensitive Plasmodium falciparum HB3. It counts as functional.
In assay [6] the test system is Plasmodium falciparum. The experiment in a line: Ratio of compound IC50 to quinidine IC50 for […] Plasmodium falciparum Dd2. It counts as functional.
Assay [7] deals with Plasmodium falciparum. The experiment in a line: Ratio of compound IC50 to cinchonine IC50 for chloroquine sensitive Plasmodium falciparum HB3. It is filed as functional.

On to `COc1ccc2nccc([C@@H](O)[C@H]3C[C@H]4CCN3C[C@@H]4/C=C/c3ccccc3)c2c1`, for which the IC50 in assay [1] and in assay [2] was more than 500 nM each time.
As for `COc1ccc2nccc([C@@H](O)[C@H]3C[C@H]4CCN3C[C@@H]4/C=C/c3ccc(C)cc3)c2c1`, the IC50 in assay [1] and in assay [2] was more than 500 nM each time.
With `COc1ccc2nccc([C@@H](O)[C@H]3C[C@H]4CCN3C[C@@H]4/C=C/c3ccccc3C)c2c1`, the IC50 in assay [1] and in assay [2] was more than 500 nM each time.
On to `COc1ccc2nccc([C@@H](O)[C@H]3C[C@H]4CCN3C[C@@H]4/C=C/c3ccc4ccccc4c3)c2c1`, for which the IC50 in assay [1] was more than 500 nM; in assay [2], more than 1500 nM.
The corresponding values for `COc1ccc2nccc([C@@H](O)[C@H]3C[C@H]4CCN3C[C@@H]4/C=C/c3cccc4ccccc34)c2c1` are more than 500 nM and more than 500 nM.
Regarding `COc1ccc2nccc([C@@H](O)[C@H]3C[C@H]4CCN3C[C@@H]4/C=C/c3ccc(-c4ccccc4)cc3)c2c1`, the results for the IC50 in assay [1] and in assay [2] were 128 nM and 184 nM, respectively.
For the molecule `CCOC(=O)c1ccc(/C=C/[C@H]2CN3CC[C@@H]2C[C@@H]3[C@H](O)c2ccnc3ccc(OC)cc23)cc1`, the IC50 was found to be 54000 nM in assay [3], 40000 nM in assay [4], 428 nM in assay [1] and 318 nM in assay [2].
Consider `COc1ccc2nccc([C@@H](O)[C@H]3C[C@H]4CCN3C[C@@H]4/C=C/c3ccc(F)cc3)c2c1`, for which the IC50 in assay [3] is 44000 nM; in assay [4], 23000 nM; in assay [1], more than 500 nM; in assay [2], more than 500 nM.
In the case of `COc1ccc2nccc([C@@H](O)[C@H]3C[C@H]4CCN3C[C@@H]4/C=C/c3cccc(F)c3)c2c1`, the results for the IC50 in assay [1] and in assay [2] were 145 nM and 733 nM, respectively.
For `COc1ccc2nccc([C@@H](O)[C@H]3C[C@H]4CCN3C[C@@H]4/C=C/c3ccc(Cl)cc3)c2c1`, the IC50 in assay [1] and in assay [2] was more than 500 nM throughout.
In the case of `COc1ccc2nccc([C@@H](O)[C@H]3C[C@H]4CCN3C[C@@H]4/C=C/c3ccc(C(F)(F)F)cc3)c2c1`, the IC50 in assay [3] is 100000 nM; in assay [4], 46000 nM; in assay [1], 427 nM; in assay [2], 485 nM.
Take `COc1ccc2nccc([C@@H](O)[C@H]3C[C@H]4CCN3C[C@@H]4/C=C/c3cccc(C(F)(F)F)c3)c2c1`: the IC50 in assay [3] is 52000 nM; in assay [1], more than 500 nM; in assay [2], more than 500 nM.
On to `COc1ccc(/C=C/[C@H]2CN3CC[C@@H]2C[C@@H]3[C@H](O)c2ccnc3ccc(OC)cc23)cc1`, for which the IC50 in assay [1] and in assay [2] was more than 500 nM in each case.
With `COc1cccc(/C=C/[C@H]2CN3CC[C@@H]2C[C@@H]3[C@H](O)c2ccnc3ccc(OC)cc23)c1`, the IC50 in assay [1] and in assay [2] was more than 500 nM in each case.
Consider `COc1ccc2nccc([C@@H](O)[C@H]3C[C@H]4CCN3C[C@@H]4/C=C/c3ccc4c(c3)OCO4)c2c1`, for which the IC50 in assay [1] and in assay [2] was more than 500 nM each time.
Consider `O[C@H](c1ccnc2ccccc12)[C@@H]1C[C@@H]2CCN1C[C@@H]2/C=C/c1ccc(-c2ccccc2)cc1`, for which the IC50 was 116000 nM in assay [4], 127 nM in assay [1] and 176 nM in assay [2].
With `CCOC(=O)c1ccc(/C=C/[C@H]2CN3CC[C@H]2C[C@H]3[C@H](O)c2ccnc3ccccc23)cc1`, the IC50 in assay [1] was determined as 590 nM; in assay [2], 198 nM.
In the case of `O[C@H](c1ccnc2ccccc12)[C@@H]1C[C@@H]2CCN1C[C@@H]2/C=C/c1ccc(C(F)(F)F)cc1`, the IC50 in assay [1] is 297 nM; in assay [2], 223 nM.
In the case of `O[C@H](c1ccnc2ccccc12)[C@@H]1C[C@@H]2CCN1C[C@@H]2/C=C/c1cccc(C(F)(F)F)c1`, the IC50 in assay [3] worked out at 75000 nM; in assay [4] it was 70000 nM; in assay [1], 394 nM; in assay [2] it was 928 nM.
On to `COc1ccc2nccc([C@H](O)[C@H]3C[C@@H]4CCN3C[C@@H]4/C=C/c3ccc(-c4ccccc4)cc3)c2c1`, for which the “Ratio IC50” value in assay [5] was determined as 6; in assay [6] it was 2. For the same molecule, the IC50 amounted to 123 nM in assay [1] and 202 nM in assay [2].
As to `CCOC(=O)c1ccc(/C=C/[C@H]2CN3CC[C@H]2C[C@@H]3[C@@H](O)c2ccnc3ccc(OC)cc23)cc1`, the IC50 in assay [3] worked out at 88000 nM; in assay [4] it was 40000 nM; in assay [1], 120 nM; in assay [2], 203 nM. Moreover, the “Ratio IC50” value worked out at 6 in assay [5] and 2 in assay [6].
Consider `COc1ccc2nccc([C@H](O)[C@H]3C[C@@H]4CCN3C[C@@H]4/C=C/c3ccc(C(F)(F)F)cc3)c2c1`, for which the IC50 stood at 165 nM in assay [1] and 2350 nM in assay [2].
As to `COc1ccc2nccc([C@H](O)[C@H]3C[C@@H]4CCN3C[C@@H]4/C=C/c3cccc(C(F)(F)F)c3)c2c1`, the “Ratio IC50” value in assay [5] worked out at 6; in assay [6] it was 2. Also, the IC50 stood at 98 nM in assay [1] and 182 nM in assay [2].
On to `O[C@@H](c1ccnc2ccccc12)[C@H]1C[C@@H]2CCN1C[C@@H]2/C=C/c1ccc(-c2ccccc2)cc1`, for which, in assay [7], the “Ratio IC50” value is recorded as 6. Also, the results for the IC50 in assay [1] and in assay [2] were 90 nM and 243 nM, respectively.
For the molecule `CCOC(=O)c1ccc(/C=C/[C@H]2CN3CC[C@H]2C[C@@H]3[C@@H](O)c2ccnc3ccccc23)cc1`, the IC50 is 66000 nM in assay [3], 50000 nM in assay [4], 144 nM in assay [1] and 263 nM in assay [2]. Further, in assay [7], the “Ratio IC50” value amounted to 6.
Turning to `O[C@@H](c1ccnc2ccccc12)[C@H]1C[C@@H]2CCN1C[C@@H]2/C=C/c1ccc(C(F)(F)F)cc1`, in assay [7], the “Ratio IC50” value came to 6. The IC50 in assay [1] worked out at 66 nM; in assay [2] it was 983 nM.
As to `O[C@@H](c1ccnc2ccccc12)[C@H]1C[C@@H]2CCN1C[C@@H]2/C=C/c1cccc(C(F)(F)F)c1`, the IC50 came to 63000 nM in assay [3], 39000 nM in assay [4], 154 nM in assay [1] and 146 nM in assay [2]. In addition, the “Ratio IC50” value in assay [7] is 6.
Regarding `CCN(CC)CCCC(C)Nc1ccnc2cc(Cl)ccc12` (stereo not drawn) [CHLOROQUINE], the results for the IC50 in assay [3] and in assay [4] were 49000 nM and 33000 nM, respectively.
In the case of `C=C[C@H]1CN2CC[C@H]1C[C@H]2[C@H](O)c1ccnc2ccccc12` [CINCHONIDINE], the IC50 amounted to 321000 nM in assay [3], 142000 nM in assay [4], 70 nM in assay [1] and 207 nM in assay [2].
Turning to `C=C[C@H]1CN2CC[C@H]1C[C@@H]2[C@@H](O)c1ccnc2ccccc12` [CINCHONINE], the IC50 in assay [3] turned out to be 370000 nM; in assay [4], 170000 nM; in assay [1], 22 nM; in assay [2], 82 nM.
On the same counts, the results for `C=C[C@H]1CN2CC[C@H]1C[C@@H]2[C@@H](O)c1ccnc2ccc(OC)cc12` [QUINIDINE] are 130000 nM, 23000 nM, 18 nM and 90 nM.
On the same counts, the results for `C=C[C@H]1CN2CC[C@H]1C[C@H]2[C@H](O)c1ccnc2ccc(OC)cc12` [QUININE] are 291000 nM, 34000 nM, 81 nM and 320 nM.
